Target: T1, mAdpn (Mus musculus, UniProt Q91WW7)
T1 sequence (Q91WW7 1-413): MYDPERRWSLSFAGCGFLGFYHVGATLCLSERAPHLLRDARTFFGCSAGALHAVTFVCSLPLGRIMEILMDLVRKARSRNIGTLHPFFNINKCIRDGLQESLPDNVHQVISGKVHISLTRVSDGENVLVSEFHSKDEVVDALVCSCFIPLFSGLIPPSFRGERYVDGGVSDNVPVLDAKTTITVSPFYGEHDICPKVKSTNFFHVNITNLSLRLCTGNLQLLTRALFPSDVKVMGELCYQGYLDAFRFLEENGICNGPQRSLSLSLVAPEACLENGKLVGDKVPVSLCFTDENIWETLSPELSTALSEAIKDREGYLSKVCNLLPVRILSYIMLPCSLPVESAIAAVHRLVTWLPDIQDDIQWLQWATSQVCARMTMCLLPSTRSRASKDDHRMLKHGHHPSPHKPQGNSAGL
Experiment: radiometric LPAAT assay, TLC, Michaelis-Menten fit
Assay type: biochemical
Details: co-substrate LPA; labelled compound [1-14C]

- Km: 12.5 µM
SMILES: CCCCCCCC/C=C\CCCCCCCC(=O)SCCNC(=O)CCNC(=O)[C@H](O)C(C)(C)COP(=O)(O)OP(=O)(O)OC[C@H]1O[C@@H](n2cnc3c(N)ncnc32)[C@H](O)[C@@H]1OP(=O)(O)O [oleoyl-CoA]

Source: article PMC3361708 (Cell Metabolism, 2012)
